# Reference: US8598202B2, “Aryl-hydroxyethylamino-pyrimidines and triazines as modulators of fatty acid amide hydrolase” (Janssen Pharmaceutica NV, priority 2008, dated 2013)
# Assays:
# [1] = target: T1, Rat FAAH-1 (Rattus norvegicus, UniProt P97612); assay: Assay Method 2: rat FAAH-1 assay, 3H-anandamide hydrolysis in homogenate of SK-N-MC cells transfected with rat FAAH
# T1 sequence (P97612 1-579): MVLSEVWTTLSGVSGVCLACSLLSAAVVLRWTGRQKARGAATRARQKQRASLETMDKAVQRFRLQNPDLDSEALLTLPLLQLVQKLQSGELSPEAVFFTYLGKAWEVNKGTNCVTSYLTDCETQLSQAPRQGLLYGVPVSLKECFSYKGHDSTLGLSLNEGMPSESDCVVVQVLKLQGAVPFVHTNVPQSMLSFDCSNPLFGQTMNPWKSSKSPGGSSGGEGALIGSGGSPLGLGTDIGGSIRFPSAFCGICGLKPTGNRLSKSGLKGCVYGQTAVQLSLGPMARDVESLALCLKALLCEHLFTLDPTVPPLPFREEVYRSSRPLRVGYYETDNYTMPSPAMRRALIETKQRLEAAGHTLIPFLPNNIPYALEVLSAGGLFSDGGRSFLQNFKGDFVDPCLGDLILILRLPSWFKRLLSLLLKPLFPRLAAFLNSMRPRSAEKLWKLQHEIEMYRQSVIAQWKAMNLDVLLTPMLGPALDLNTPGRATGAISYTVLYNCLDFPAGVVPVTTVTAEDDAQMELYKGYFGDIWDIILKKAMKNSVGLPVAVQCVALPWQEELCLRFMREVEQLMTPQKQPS
# [2] = target: T2, FAAH (Homo sapiens, UniProt O00519); assay: Assay Method 1: FAAH assay, 3H-anandamide hydrolysis in homogenate of T84 cells or SK-N-MC cells transfected with human FAAH
# T2 sequence (O00519 1-579): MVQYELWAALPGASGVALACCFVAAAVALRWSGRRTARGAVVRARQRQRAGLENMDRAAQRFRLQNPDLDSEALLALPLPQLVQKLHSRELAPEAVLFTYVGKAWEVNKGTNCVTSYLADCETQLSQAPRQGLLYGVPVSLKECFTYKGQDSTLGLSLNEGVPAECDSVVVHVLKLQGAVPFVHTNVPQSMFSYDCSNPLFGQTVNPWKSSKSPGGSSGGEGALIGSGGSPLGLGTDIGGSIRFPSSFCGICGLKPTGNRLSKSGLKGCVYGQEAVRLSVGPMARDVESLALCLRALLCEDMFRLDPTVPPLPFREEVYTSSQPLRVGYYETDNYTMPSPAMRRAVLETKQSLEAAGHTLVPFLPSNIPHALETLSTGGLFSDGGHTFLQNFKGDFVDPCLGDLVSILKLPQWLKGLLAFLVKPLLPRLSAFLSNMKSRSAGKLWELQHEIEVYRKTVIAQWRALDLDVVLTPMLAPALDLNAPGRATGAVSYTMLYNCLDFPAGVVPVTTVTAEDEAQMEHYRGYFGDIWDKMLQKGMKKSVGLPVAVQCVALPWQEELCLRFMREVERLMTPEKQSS
IC50 [1] [µM],IC50 [2] [µM],Compound
0.4,0.01,"OC(CNc1cc(-c2ccc(C(F)(F)F)c(Cl)c2)ncn1)c1ccc(-c2ccccc2)cc1 (centres unmarked) [Example 195, 1-Biphenyl-4-yl-2-({6-[3-chloro-4-(trifluoromethyl)phenyl]pyrimidin-4-yl}amino)ethanol]"
0.043,0.108,"OC(CNc1cc(-c2ccc(C(F)(F)F)c(Cl)c2)ncn1)c1cc2ccccc2s1 (centres unmarked) [Example 196, 1-(1-Benzothiophen-2-yl)-2-({6-[3-chloro-4-(trifluoromethyl)phenyl]pyrimidin-4-yl}amino)ethanol]"
0.034,0.1,"OC(CNc1cc(-c2ccc(C(F)(F)F)c(Cl)c2)ncn1)c1ccc(C(F)(F)F)c(F)c1 (centres unmarked) [Example 197, 2-({6-[3-Chloro-4-(trifluoromethyl)phenyl]pyrimidin-4-yl}amino)-1-[3-fluoro-4-(trifluoromethyl)phenyl]ethanol]"
0.025,0.092,"OC(CNc1cc(-c2ccc(C(F)(F)F)c(Cl)c2)ncn1)c1cccc(SC(F)(F)F)c1 (centres unmarked) [Example 198, 2-({6-[3-chloro-4-(trifluoromethyl)phenyl]pyrimidin-4-yl}amino)-1-[3-[(trifluoromethyl)sulfanyl]phenyl]ethanol]"
0.12,0.5,"OC(CNc1cc(-c2ccc(C(F)(F)F)c(Cl)c2)ncn1)c1ccc2c(c1)OCCO2 (centres unmarked) [Example 199, 2-({6-[3-Chloro-4-(trifluoromethyl)phenyl]pyrimidin-4-yl}amino)-1-(2,3-dihydro-1,4-benzodioxin-6-yl)ethanol]"
1.6,0.165,"OC(CNc1cc(-c2ccc(C(F)(F)F)c(Cl)c2)ncn1)c1ccc(-n2ccnc2)cc1 (centres unmarked) [Example 200, 2-({6-[3-Chloro-4-(trifluoromethyl)phenyl]pyrimidin-4-yl}amino)-1-[4-(1H-imidazol-1-yl)phenyl]ethanol]"
0.17,0.17,"OC(CNc1cc(-c2ccc(C(F)(F)F)c(Cl)c2)ncn1)c1csc2ccccc12 (centres unmarked) [Example 201, 1-(1-benzothiophen-3-yl)-2-({6-[3-chloro-4-(trifluoromethyl)phenyl]pyrimidin-4-yl}amino)ethanol]"
0.1,0.225,"COc1ccc(C(O)CNc2cc(-c3ccc(C(F)(F)F)c(Cl)c3)ncn2)cc1OC (centres unmarked) [Example 202, 2-({6-[3-Chloro-4-(trifluoromethyl)phenyl]pyrimidin-4-yl}amino)-1-(3,4-dimethoxyphenyl)ethanol]"
0.2,0.27,"COc1ccc(C(O)CNc2cc(-c3ccc(C(F)(F)F)c(Cl)c3)ncn2)cc1Cl (centres unmarked) [Example 203, 1-(3-Chloro-4-methoxyphenyl)-2-({6-[3-chloro-4-(trifluoromethyl)phenyl]pyrimidin-4-yl}amino)ethanol]"
0.082,0.548,"OC(CNc1cc(-c2ccc(C(F)(F)F)c(Cl)c2)ncn1)c1ccc2c(c1)OCCCO2 (centres unmarked) [Example 204, 2-({6-[3-Chloro-4-(trifluoromethyl)phenyl]pyrimidin-4-yl}amino)-1-(3,4-dihydro-2H-1,5-benzodioxepin-7-yl)ethanol]"
0.014,0.08,"OC(CNc1cc(-c2ccc(C(F)(F)F)c(Cl)c2)ncn1)c1cc(C(F)(F)F)ccc1F (centres unmarked) [Example 205, 2-({6-[3-Chloro-4-(trifluoromethyl)phenyl]pyrimidin-4-yl}amino)-1-[2-fluoro-5-(trifluoromethyl)phenyl]ethanol]"
0.015,0.025,"N#Cc1cccc(C(O)CNc2cc(-c3ccc(C(F)(F)F)c(Cl)c3)ncn2)c1 (centres unmarked) [Example 206, 3-[2-({6-[3-Chloro-4-(trifluoromethyl)phenyl]pyrimidin-4-yl}amino)-1-hydroxyethyl]benzonitrile]"
0.111,0.067,"OC(CNc1cc(-c2ccc(C(F)(F)F)c(Cl)c2)ncn1)c1cc(-c2ccccc2)no1 (centres unmarked) [Example 207, 2-({6-[3-Chloro-4-(trifluoromethyl)phenyl]pyrimidin-4-yl}amino)-1-(3-phenylisoxazol-5-yl)ethanol]"
0.5,0.028,"OC(CNc1cc(-c2ccc(C(F)(F)F)c(Cl)c2)ncn1)c1ccc(N2CCCC2)cc1 (centres unmarked) [Example 208, 2-({6-[3-Chloro-4-(trifluoromethyl)phenyl]pyrimidin-4-yl}amino)-1-(4-pyrrolidin-1-ylphenyl)ethanol]"
0.036,0.012,"OC(CNc1cc(-c2ccc(C(F)(F)F)c(Cl)c2)ncn1)c1ccc(-c2ccccn2)s1 (centres unmarked) [Example 209, 2-({6-[3-Chloro-4-(trifluoromethyl)phenyl]pyrimidin-4-yl}amino)-1-(5-pyridin-2-ylthiophen-2-yl)ethanol]"
0.02,0.02,N#Cc1cc(C(O)CNc2cc(-c3ccc(C(F)(F)F)c(Cl)c3)ncn2)ccc1F (centres unmarked) [Example 210]
0.05,0.056,"OC(CNc1cc(-c2ccc(C(F)(F)F)c(Cl)c2)ncn1)c1c(F)cccc1F (centres unmarked) [Example 211, 2-({6-[3-Chloro-4-(trifluoromethyl)phenyl]pyrimidin-4-yl}amino)-1-(2,6-difluorophenyl)ethanol]"
0.039,0.065,"OC(CNc1cc(-c2ccc(C(F)(F)F)c(Cl)c2)ncn1)c1ccccc1F (centres unmarked) [Example 212, 2-({6-[3-Chloro-4-(trifluoromethyl)phenyl]pyrimidin-4-yl}amino)-1-(2-fluorophenyl)ethanol]"
0.4,0.022,"OC(CNc1cc(-c2ccc(C(F)(F)F)c(Cl)c2)ncn1)c1cc(-c2ccc(Cl)c(Cl)c2)no1 (centres unmarked) [Example 213, 2-[6-(3-Chloro-4-trifluoromethyl-phenyl)-pyrimidin-4-ylamino]-1-[3-(3,4-dichloro-phenyl)-isoxazol-5-yl]-ethanol]"
0.16,0.036,"OC(CNc1cc(-c2ccc(C(F)(F)F)c(Cl)c2)ncn1)c1cc(-c2ccc(Cl)cc2)no1 (centres unmarked) [Example 214, 1-[3-(4-Chloro-phenyl)-isoxazol-5-yl]-2-[6-(3-chloro-4-trifluoromethyl-Phenyl)-pyrimidin-4-ylamino]-ethanol]"
1,0.24,"OC(CNc1cc(-c2ccc(C(F)(F)F)c(Cl)c2)ncn1)c1cc(-c2ccc(Cl)cc2Cl)no1 (centres unmarked) [Example 215, 2-[6-(3-Chloro-4-trifluoromethyl-phenyl)-pyrimidin-4-ylamino]-1-[3-(2,4-dichloro-phenyl)-isoxazol-5-yl]-ethanol]"
> 10,> 10,"OC(CNc1cc(-c2ccc(C(F)(F)F)c(Cl)c2)ncn1)c1nc2ccccc2s1 (centres unmarked) [Example 216, 1-Benzothiazol-2-yl-2-[6-(3-chloro-4-trifluoromethyl-phenyl)-pyrimidin-4-ylamino]-ethanol]"
8,> 10,"OC(CNc1cc(-c2ccc(C(F)(F)F)c(Cl)c2)ncn1)c1cc(C(F)(F)F)cc(C(F)(F)F)c1 (centres unmarked) [Example 217, 1-[3,5-Bis(trifluoromethyl)phenyl]-2-({6-[3-chloro-4-(trifluoromethyl)phenyl]pyrimidin-4-yl}amino)ethanol]"
1,> 10,"OC(CNc1cc(-c2ccc(C(F)(F)F)c(Cl)c2)ncn1)c1cc2cc(Br)ccc2s1 (centres unmarked) [Example 218, 1-(5-Bromo-1-benzothiophen-2-yl)-2-({6-[3-chloro-4-(trifluoromethyl)phenyl]pyrimidin-4-yl}amino)ethanol]"
> 10,2,"O[C@@H](CNc1cc(-c2ccc(C(F)(C(F)(F)F)C(F)(F)F)cc2)ncn1)c1ccccc1 [Example 219, (1R)-Phenyl-2-{6-[4-(1,2,2,2-tetrafluoro-1-trifluoromethyl-ethyl)-phenyl]-pyrimidin-4-ylamino}-ethanol]"
0.69,0.042,"O[C@@H](CNc1cc(-c2cccc(C(F)(C(F)(F)F)C(F)(F)F)c2)ncn1)c1ccccc1 [Example 220, (1R)-Phenyl-2-{6-[3-(1,2,2,2-tetrafluoro-1-trifluoromethyl-ethyl)-phenyl]-Pyrimidin-4-ylamino}-ethanol]"
0.48,0.019,O[C@@H](CNc1cc(-c2ccc3c(C(F)(F)F)csc3c2)ncn1)c1ccccc1 [Example 221]
0.707,0.144,"Cc1ccc(-c2cc(NCC(O)c3ccccc3)ncn2)cc1C (centres unmarked) [Example 223, 2-{[6-(3,4-Dimethylphenyl)pyrimidin-4-yl]amino}-1-phenylethanol]"
